The text below walks through data of patent US7470831B1, “Genetic method” (Syngenta Limited, priority 1997, dated 2008).

Structures are written as SMILES. Read-outs that look alike come from different tables or passages of the source.

Experiment [1] concerns palc:Inv transgenic tobacco plants. To be noted: 1% ethanol root drench. The procedure:
(§1) Phenotypic modification started 72 hours after ethanol induction and was strongest after 96 hours. The final phenotype was identical to the previously published results using the 35S CaMV promoter to drive the expression of cytosolic yeast invertase (Sonnewald et al Plant J. 1, 95 (1991)). Development of this phenotype followed maximal invertase activity and was most severe in transformant 28. Photosynthesis fluorescence measurements were used to monitor changes of quantum yield (Schreiber et al, in Ecophysiology of Photosynthesis Vol. 100, Schuize and Caldwell, Eds (Springer Verlag, Berlin, 1994), pp 49-70.) of all three transformant lines in vivo throughout the induction experiment.
Fluorescence measurements were used to monitor changes in photosynthetic parameters during induction of invertase activity using the PAM-2000 instrument (Walz, Effeltrich, Germany). Quantum use efficiency (quantum yield) of photosystem II (PSII) was measured by applying a saturating light beam on light adapted leaves of wildtype and transformed plants (palc:Inv). Before each measurement, it was verified that the saturating pulse had reached a plateau to allow an accurate determination of Fm′. The intensities of the measuring and saturating light beam were adjusted to reach a FO′ value close to 0.4. Measurements were conducted on different leaves having reached 8% (A), 15% (B), or 45% (C) of maximal leaf area of five plants of each genotype at the indicated time points.
Quantum yield of three succeeding light adapted leaves (leaf A-C) starting from the top of the plant was measured using a PAM-2000 instrument at the time points indicated. Values given are the means +−SE (n=5). For plants of line 28, quantum yield was reduced by 23% (p<0.05) and 27% (p<0.05) and for plants of line 10 only by 6% and 17% (p<0.05), respectively.

Experiment [2] relates to CaMV 35S promoter (p35S:CAT transgenic tobacco line). As for the experimental part: (§2) A selected seedling was grown to maturity to produce a homozygous line. Seedlings of this plant were tested for CAT protein in comparison to seedlings of a similar plant transformed with a construct which expressed CAT from the constitutive high activity CaMV 35S promoter (Table 1).
(§3) Individual seedlings from a homozygous transgenic tobacco line carrying the CAT gene expressed from the alcA promoter were compared with those from a similar line transformed with p35S:CAT. […] Induction was achieved by the addition of 0.1% ethanol to the growth medium for 120 h. The induction medium was replaced at 58 h to maintain ethanol concentrations. One leaf was taken prior to induction, and one leaf after induction. CAT ELISA (Boehringer Mannheim) was performed on crude cell extracts; total protein was determined as described previously (Bradford, Anal Biochem 72: 243 (1976). All values are ng CAT protein per mg total protein, and represent the mean of nine individual replicates±one standard deviation.

Experiment [3] has as its system alcA promoter (p35S:alcR / palcA:CAT transgenic tobacco line). The procedure: as §2, §3
Experiment [4] concerns palcA:cyInv transgenic tobacco plants. As for the experimental part: as §1

Take `CCO` [Ethanol, ethanol]: the “reduction of quantum yield” value in experiment [1] (line 10, leaf B (15% of maximal leaf area)) stood at 6%; in experiment [1] (line 10, leaf C (45% of maximal leaf area), p<0.05) it was 17%; in experiment [1] (line 28, leaf B (15% of maximal leaf area), p<0.05), 23%; in experiment [1] (line 28, leaf C (45% of maximal leaf area), p<0.05) it was 27%. In addition, the “reduction in CAT protein levels relative to the untreated control” value in experiment [2] (ethanol-treated p35S:CAT seedlings) is given as 29%. Also, the CAT protein level is 55.46 ± 10.85 ng CAT protein per mg total protein in experiment [2] (p35S:CAT seedlings, 0.1% ethanol in growth medium for 120 h, mean of nine replicates ± one SD) and 30.37 ± 3.91 ng CAT protein per mg total protein in experiment [3] (homozygous palcA:CAT seedlings, 0.1% ethanol in growth medium for 120 h, mean of nine replicates ± one SD). For the same molecule, the “CAT activity of induced palc:CAT seedlings relative to ethanol-treated p35S:CAT seedlings” value in experiment [3] (ethanol-induced palc:CAT vs ethanol-treated p35S:CAT) is 55%. Besides, the “CAT activity of induced palc:CAT seedlings relative to untreated p35S:CAT seedlings” value in experiment [3] (ethanol-induced palc:CAT vs untreated p35S:CAT) came to 39%. The “invertase activity in transgenic plants at two ethanol concentrations” value in experiment [4] (5% vs 1% ethanol (FIG. 3)) was “dose-dependent”. Besides, the “time after first addition of ethanol at which elevated invertase activity was measurable” value in experiment [4] (lines 10, 27 and 28, root drench 100 ml 1% ethanol (v/v)) worked out at 6 h. Besides, the “time after initial root drenching at which invertase activity reached a plateau” value in experiment [4] (lines 10 and 27, root drench 100 ml 1% ethanol, repeated at 48 and 72 hours) amounted to 96 h. The “start of phenotypic modification after ethanol induction” value in experiment [4] (palcA:cyInv lines, strongest after 96 hours) was found to be 72 h.
